Laboratory results taken from patent US12162890B2 (Novartis AG, priority 2015, dated 2024).

Biological target: HEK293 cells with stable expression of the GRIN1 gene and tetracycline-inducible expression of the GRIN2B gene (NMDA receptor, NR2B) (Homo sapiens, UniProt Q13224)
Assay: Fluo-8 Ca2+ flux assay: reversal of Ro 25-6981-mediated suppression of the Ca2+ response to co-agonist (glutamate/glycine); also: test concentration or dose not given here
Type: cell-based
Conditions: reversal of the Ro 25-6981 suppression of the Ca2+ response to co-agonist (glutamate/glycine)

HEK293 cells with stable expression of the GRIN1 gene and tetracycline-inducible expression of the GRIN2B gene (NMDA receptor, NR2B), sequence (Q13224 27-1484, other chains not shown): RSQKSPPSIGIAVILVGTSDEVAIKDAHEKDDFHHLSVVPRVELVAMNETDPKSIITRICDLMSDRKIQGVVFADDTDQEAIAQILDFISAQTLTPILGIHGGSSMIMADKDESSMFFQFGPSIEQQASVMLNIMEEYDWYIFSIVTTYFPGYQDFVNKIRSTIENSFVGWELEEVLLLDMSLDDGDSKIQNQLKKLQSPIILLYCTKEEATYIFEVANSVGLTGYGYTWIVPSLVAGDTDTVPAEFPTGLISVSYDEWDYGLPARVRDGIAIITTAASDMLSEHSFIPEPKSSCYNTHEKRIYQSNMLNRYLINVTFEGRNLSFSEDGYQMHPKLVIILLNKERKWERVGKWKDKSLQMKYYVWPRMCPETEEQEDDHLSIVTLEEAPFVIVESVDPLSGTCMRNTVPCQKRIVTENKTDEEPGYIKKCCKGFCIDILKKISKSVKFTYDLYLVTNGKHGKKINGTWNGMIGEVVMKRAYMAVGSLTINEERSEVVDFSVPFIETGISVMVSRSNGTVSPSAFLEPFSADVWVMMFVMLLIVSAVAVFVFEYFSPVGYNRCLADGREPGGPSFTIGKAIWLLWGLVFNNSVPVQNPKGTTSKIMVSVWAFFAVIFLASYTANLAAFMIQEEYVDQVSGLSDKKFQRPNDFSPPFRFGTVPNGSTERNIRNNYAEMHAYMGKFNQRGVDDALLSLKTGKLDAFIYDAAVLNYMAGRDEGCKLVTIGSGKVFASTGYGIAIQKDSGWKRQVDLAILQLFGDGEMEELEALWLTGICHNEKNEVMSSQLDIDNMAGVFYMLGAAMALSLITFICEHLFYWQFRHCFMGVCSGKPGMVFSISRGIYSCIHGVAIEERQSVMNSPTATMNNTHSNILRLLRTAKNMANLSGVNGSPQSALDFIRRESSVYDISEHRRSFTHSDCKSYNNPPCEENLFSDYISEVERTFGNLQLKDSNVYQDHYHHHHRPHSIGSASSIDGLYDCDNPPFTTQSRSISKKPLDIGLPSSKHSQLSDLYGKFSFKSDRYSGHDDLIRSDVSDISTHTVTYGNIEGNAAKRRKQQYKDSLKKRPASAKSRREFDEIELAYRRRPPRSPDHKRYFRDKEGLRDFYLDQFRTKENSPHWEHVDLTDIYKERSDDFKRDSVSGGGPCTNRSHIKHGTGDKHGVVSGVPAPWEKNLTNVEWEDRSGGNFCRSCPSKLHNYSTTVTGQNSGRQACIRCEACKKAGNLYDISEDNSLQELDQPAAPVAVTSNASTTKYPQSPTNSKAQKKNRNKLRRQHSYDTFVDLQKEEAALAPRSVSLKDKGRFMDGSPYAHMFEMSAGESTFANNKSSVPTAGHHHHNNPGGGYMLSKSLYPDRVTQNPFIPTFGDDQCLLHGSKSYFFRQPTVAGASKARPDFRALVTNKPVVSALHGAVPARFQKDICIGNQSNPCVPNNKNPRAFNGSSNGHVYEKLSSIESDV

SMILES	Response Recovered (%)
Cn1cc(-c2ccc(Cl)c(F)c2)c2c(=O)n(CC(=O)N3CCCC3)cnc21 [Example 165, 5-(4-chloro-3-fluorophenyl)-7-methyl-3-(2-oxo-2-(pyrrolidin-1-yl)ethyl)-3H-pyrrolo[2,3-d]pyrimidin-4(7H)-one]	25%
O=C(Cn1cnc2[nH]cc(-c3ccc(Cl)c(C(F)(F)F)c3)c2c1=O)N1CC(F)(F)C1 [Example 166, 5-(4-chloro-3-(trifluoromethyl)phenyl)-3-(2-(3,3-difluoroazetidin-1-yl)-2-oxoethyl)-3H-pyrrolo[2,3-d]pyrimidin-4(7H)-one]	65%
O=C(Cn1cnc2[nH]cc(-c3ccc(Cl)c(F)c3)c2c1=O)N1CC(F)(F)C1 [Example 167, 5-(4-chloro-3-fluorophenyl)-3-(2-(3,3-difluoroazetidin-1-yl)-2-oxoethyl)-3H-pyrrolo[2,3-d]pyrimidin-4(7H)-one]	35%
Cn1cc(-c2ccc(Cl)c(C(F)(F)F)c2)c2c(=O)n(CC(=O)N3CC(F)(F)C3)cnc21 [Example 168, 5-(4-chloro-3-(trifluoromethyl)phenyl)-3-(2-(3,3-difluoroazetidin-1-yl)-2-oxoethyl)-7-methyl-3H-pyrrolo[2,3-d]pyrimidin-4(7H)-one]	55%
CCn1cc(-c2ccc(Cl)c(C(F)(F)F)c2)c2c(=O)n(CC(=O)N3CC(F)(F)C3)cnc21 [Example 169]	57%
Cn1cc(-c2ccc(Cl)c(F)c2)c2c(=O)n(CC(=O)N3CC(F)(F)C3)cnc21 [Example 170, 5-(4-chloro-3-fluorophenyl)-3-(2-(3,3-difluoroazetidin-1-yl)-2-oxoethyl)-7-methyl-3H-pyrrolo[2,3-d]pyrimidin-4(7H)-one]	18%
CCn1cc(-c2ccc(Cl)c(F)c2)c2c(=O)n(CC(=O)N3CC(F)(F)C3)cnc21 [Example 171, 5-(4-chloro-3-fluorophenyl)-3-(2-(3,3-difluoroazetidin-1-yl)-2-oxoethyl)-7-ethyl-3H-pyrrolo[2,3-d]pyrimidin-4(7H)-one]	15%
O=C(Cn1cnc2c(c(-c3ccc(F)c(Cl)c3)cn2CCF)c1=O)N1CCCC1 [Example 172]	40%
O=C(Cn1cnc2c(c(-c3ccc(Cl)c(F)c3)cn2CCF)c1=O)N1CCCC1 [Example 173, 5-(4-chloro-3-fluorophenyl)-7-(2-fluoroethyl)-3-(2-oxo-2-(pyrrolidin-1-yl)ethyl)-3H-pyrrolo[2,3-d]pyrimidin-4(7H)-one]	32%
O=C(Cn1cnc2[nH]cc(-c3ccc(F)c(C(F)(F)F)c3)c2c1=O)N1CCC(F)C1 (centres unmarked) [Example 174, 5-(4-fluoro-3-(trifluoromethyl)phenyl)-3-(2-(3-fluoropyrrolidin-1-yl)-2-oxoethyl)-3H-pyrrolo[2,3-d]pyrimidin-4(7H)-one]	91%
O=C(Cn1cnc2[nH]cc(-c3ccc(Cl)c(Cl)c3)c2c1=O)N1CCC(F)C1 (centres unmarked) [Example 175, 5-(3,4-dichlorophenyl)-3-(2-(3-fluoropyrrolidin-1-yl)-2-oxoethyl)-3H-pyrrolo[2,3-d]pyrimidin-4(7H)-one]	77%
O=C(Cn1cnc2[nH]cc(-c3ccc(C(F)(F)F)c(Cl)c3)c2c1=O)N1CCC(F)C1 (centres unmarked) [Example 176, 5-(3-chloro-4-(trifluoromethyl)phenyl)-3-(2-(3-fluoropyrrolidin-1-yl)-2-oxoethyl)-3H-pyrrolo[2,3-d]pyrimidin-4(7H)-one]	63%
O=C(Cn1cnc2[nH]cc(-c3ccc(Cl)c(C(F)(F)F)c3)c2c1=O)N1CCC(F)C1 (centres unmarked) [Example 177, 5-(4-chloro-3-(trifluoromethyl)phenyl)-3-(2-(3-fluoropyrrolidin-1-yl)-2-oxoethyl)-3H-pyrrolo[2,3-d]pyrimidin-4(7H)-one]	85%
O=C(Cn1cnc2[nH]cc(-c3ccc(F)c(Cl)c3)c2c1=O)N1CCC(F)C1 (centres unmarked) [Example 178, 5-(3-chloro-4-fluorophenyl)-3-(2-(3-fluoropyrrolidin-1-yl)-2-oxoethyl)-3H-pyrrolo[2,3-d]pyrimidin-4(7H)-one]	54%
O=C(Cn1cnc2[nH]cc(-c3ccc(Cl)c(F)c3)c2c1=O)N1CCC(F)C1 (centres unmarked) [Example 179, 5-(4-Chloro-3-fluoro-phenyl)-3-[2-(3-fluoro-pyrrolidin-1-yl)-2-oxo-ethyl]-3,7-dihydro-pyrrolo[2,3-d]pyrimidin-4-one]	37%
O=C(Cn1cnc2[nH]cc(-c3cnc(Cl)c(Cl)c3)c2c1=O)N1CCC(F)C1 (centres unmarked) [Example 180, 5-(5,6-dichloropyridin-3-yl)-3-(2-(3-fluoropyrrolidin-1-yl)-2-oxoethyl)-3H-pyrrolo[2,3-d]pyrimidin-4(7H)-one]	15%

SMILES	Response Recovered (%)
O=C(Cn1cnc2[nH]cc(-c3ccc(Cl)c(C(F)(F)F)c3)c2c1=O)N1C[C@@H](F)[C@@H](F)C1 [Example 181]	69%
O=C(Cn1cnc2[nH]cc(-c3cnc(Cl)c(C(F)(F)F)c3)c2c1=O)N1CC(F)(F)C1 [Example 182, 5-(6-chloro-5-(trifluoromethyl)pyridin-3-yl)-3-(2-(3,3-difluoroazetidin-1-yl)-2-oxoethyl)-3H-pyrrolo[2,3-d]pyrimidin-4(7H)-one]	18%
O=C(Cn1cnc2[nH]cc(-c3cnc(Cl)c(C(F)(F)F)c3)c2c1=O)N1CCC(F)C1 (centres unmarked) [Example 183, 5-(6-chloro-5-(trifluoromethyl)pyridin-3-yl)-3-(2-(3-fluoropyrrolidin-1-yl)-2-oxoethyl)-3H-pyrrolo[2,3-d]pyrimidin-4(7H)-one]	14%
CCn1cc(-c2ccc(F)c(C(F)(F)F)c2)c2c(=O)n(CC(=O)N3CCC(F)C3)cnc21 (centres unmarked) [Example 184]	66%
COCCn1cc(-c2ccc(Cl)c(C(F)(F)F)c2)c2c(=O)n(CC(=O)N3CCCC3)cnc21 [Example 185, 5-(4-chloro-3-(trifluoromethyl)phenyl)-7-(2-methoxyethyl)-3-(2-oxo-2-(pyrrolidin-1-yl)ethyl)-3H-pyrrolo[2,3-d]pyrimidin-4(7H)-one]	76%
COCCn1cc(-c2ccc(F)c(Cl)c2)c2c(=O)n(CC(=O)N3CCCC3)cnc21 [Example 186, 5-(3-chloro-4-fluorophenyl)-7-(2-methoxyethyl)-3-(2-oxo-2-(pyrrolidin-1-yl)ethyl)-3H-pyrrolo[2,3-d]pyrimidin-4(7H)-one]	18%
COCCn1cc(-c2ccc(Cl)c(F)c2)c2c(=O)n(CC(=O)N3CCCC3)cnc21 [Example 187, 5-(4-chloro-3-fluorophenyl)-7-(2-methoxyethyl)-3-(2-oxo-2-(pyrrolidin-1-yl)ethyl)-3H-pyrrolo[2,3-d]pyrimidin-4(7H)-one]	9%
COCCn1cc(-c2ccc(F)c(C(F)(F)F)c2)c2c(=O)n(CC(=O)N3CCC(F)C3)cnc21 (centres unmarked) [Example 188, 5-(4-fluoro-3-(trifluoromethyl)phenyl)-3-(2-(3-fluoropyrrolidin-1-yl)-2-oxoethyl)-7-(2-methoxyethyl)-3H-pyrrolor[2,3-d]pyrimidin-4(7H)-one]	53%
COCn1cc(-c2ccc(F)c(C(F)(F)F)c2)c2c(=O)n(CC(=O)N3CCC(F)C3)cnc21 (centres unmarked) [Example 189, 5-(4-fluoro-3-(trifluoromethyl)phenyl)-3-(2-(3-fluoropyrrolidin-1-yl)-2-oxoethyl)-7-(methoxymethyl)-3H-pyrrolo[2,3-d]pyrimidin-4(7H)-one]	39%
O=C(Cn1cnc2c(c(-c3ccc(Cl)c(C(F)(F)F)c3)cn2C2CC2)c1=O)N1CCCC1 [Example 190, 5-(4-chloro-3-(trifluoromethyl)phenyl)-7-cyclopropyl-3-(2-oxo-2-(pyrrolidin-1-yl)ethyl)-3H-pyrrolo[2,3-d]pyrimidin-4(7H)-one]	71%
O=C(Cn1cnc2c(c(-c3ccc(Cl)c(F)c3)cn2C2CC2)c1=O)N1CCCC1 [Example 191, 5-(4-chloro-3-fluorophenyl)-7-cyclopropyl-3-(2-oxo-2-(pyrrolidin-1-yl)ethyl)-3H-pyrrolo[2,3-d]pyrimidin-4(7H)-one]	36%
O=C(Cn1cnc2c(c(-c3ccc(F)c(Cl)c3)cn2C2CC2)c1=O)N1CCCC1 [Example 192, 5-(3-chloro-4-fluorophenyl)-7-cyclopropyl-3-(2-oxo-2-(pyrrolidin-1-yl)ethyl)-3H-pyrrolo[2,3-d]pyrimidin-4(7H)-one]	42%
O=C(Cn1cnc2c(c(-c3ccc(Cl)c(C(F)(F)F)c3)cn2CCO)c1=O)N1CCCC1 [Example 194, 5-(4-chloro-3-(trifluoromethyl)phenyl)-7-(2-hydroxyethyl)-3-(2-oxo-2-(pyrrolidin-1-yl)ethyl)-3H-pyrrolo[2,3-d]pyrimidin-4(7H)-one]	2%
O=C(Cn1cnc2c(c(-c3ccc(F)c(Cl)c3)cn2CCO)c1=O)N1CCCC1 [Example 195, 5-(3-chloro-4-fluorophenyl)-7-(2-hydroxyethyl)-3-(2-oxo-2-(pyrrolidin-1-yl)ethyl)-3H-pyrrolo[2,3-d]pyrimidin-4(7H)-one]	21%
O=C(Cn1cnc2c(c(-c3ccc(F)c(C(F)(F)F)c3)cn2CCO)c1=O)N1CCC(F)C1 (centres unmarked) [Example 196, 5-(4-fluoro-3-(trifluoromethyl)phenyl)-3-(2-(3-fluoropyrrolidin-1-yl)-2-oxoethyl)-7-(2-hydroxyethyl)-3H-pyrrolo[2,3-d]pyrimidin-4(7H)-one]	34%
O=C(Cn1cnc2c(c(-c3ccc(Cl)c(F)c3)cn2CCO)c1=O)N1CCCC1 [Example 197]	7%
